# Assay: Solubility of SYM3D in oils
# Assay type: physicochemical
# Description: Phase B may be prepared by adding MCT oil into a mixing vessel, and incorporating further ingredients such as one or more oil-soluble active ingredients. The ingredients are mixed at room temperature at a speed of 3000 RPM, with side sweep scraping at 15 RPM. Samples should be taken via the valve at the bottom of the kettle and tested by centrifugation, and the solution also visibly inspected to ensure complete incorporation of the second ingredient. Centrifugation of a sample of the mixture is an optional step to ensure complete dissolution of the second ingredient.
# Amounts of SYM3D that would be effective in the invented formulation range from 0.1 to 1% by weight of the overall formulation. The specific amount used by the inventors in a sample formulation was 0.5%. SYM3D is selectively soluble in certain oils. […] It is therefore important to include an oil component such as MCT oil which is compatible with SYM3D if it is being used.
compound,measurement,setting,value
"CCCc1cc(OC)c2c(c1)C(C)C(c1ccc(O)c(OC)c1)O2 (centres unmarked) [SYM3D, dihydrodehydrodiisoeugenol]",solubility in MCT oil,"MCT oil, room temperature, 3000 RPM mixing",can be solubilized
same,solubility in squalane,squalane,not soluble

# Reference: patent US20220378681A1, “SKIN CARE FORMULATION WITH LIPOPHILIC PEPTIDES” (DECIEM BEAUTY GROUP INC., priority 2019, published 2022)
